US20190224279A1, “PHARMACEUTICAL ASSOCIATION COMPRISING A GROWTH FACTOR RECEPTOR AGONIST CONJUGATED TO A BIOACTIVE CARRIER FOR CONVERTING A NEOPLASTIC CELL INTO A NON-NEOPLASTIC CELL AND USES THEREOF” (HISTIDE AG, priority 2015, published 2019)
No end group written: not given here.

Tests used:
[1] = test system: neoplastic cells (osteosarcoma cells); assay: Immunofluorescence visualization (actin, vinculin, DAPI) of neoplastic cells on grafted polymer scaffold, 24 hours; type: cell-based; details: polymer scaffold covalently modified with mixture of GFR-binding compound and RGD peptide; 24 hours of culture
Procedure: FIG. 12 is (a) a representation of a Quantitative Real Time PCR analysis of the expression of DMP-1, SCT and RANK-L in neoplastic cells (osteosarcoma cells) cultured on a native polymer scaffold (control) and on a polymer scaffold grafted with a mixture comprising a GFR-binding compound as defined in the present disclosure and a RGD peptide, after 24 hours of culture, (b) immunofluorescence staining of a representative neoplastic cell (osteosarcoma cells) cultured on a polymer scaffold grafted with a mixture comprising a GFR-binding compound as defined in the present disclosure (ID SEQ NO: 2) and a RGD peptide, after 24 hours of culture. The actin filaments were immunostained by using Alexa 488-phalloidin. The focal adhesions were represented by immunostaining with anti-vinculin. The nucleus was stained with DAPI and is represented by a circle in the center of the cell. Scale bar: 5 μm. (c) is a diagram representing the grafting density of a radiolabeled GFR-binding compound as defined in the present disclosure covalently grafted on a polymer scaffold and of a radiolabeled GFR-binding compound and a non-labeled RGD peptide both grafted on a polymer scaffold. The measurements were performed by using radioactivity quantification (no significant difference was observed). […]

[2] = Stability of non-covalent association, release of FITC-labelled GFR-binding compound from carrier; type: physicochemical; details: SEQ ID NO: 9 with apatite ceramics, SEQ ID NO: 10 with type-I collagen sponge; after 3, 7 or 10 days
Procedure: Non-covalent associations of the bioactive carriers were performed under atmospheric conditions (air) at room temperature (about 22° C.). The non-covalent association was carried out using a mixture of GFR-binding compound of SEQ ID NO: 9 (concentration of 1×10^−3 M) with the apatite ceramics or a mixture of GFR-binding compound of SEQ ID NO: 10 (concentration of 1×10^−3M) with the type-I collagen sponge. The non-covalent pharmaceutical associations were characterized by covalently associating fluorescent GFR-binding compounds of SEQ ID NO: 9 and 10 (covalently bound to fluorescein isothiocyanate (FITC), FIG. 1).

[3] = test system: Vinculin; assay: Vinculin gene expression by RT-PCR; type: cell-based, human; details: osteosarcoma cells on PET associations; 24 hours
Procedure: (§1) After 24 hours of culture, total RNA was extracted by using the RNeasy total RNA kit (Qiagen®) according to the manufacturer's instructions. Purified total RNA was used as a template in order to make cDNA by a reverse transcription reaction (Gibco BrI®) with random primers (Invitrogen®). The cDNA was then used as a template for a real-time PCR amplification in the presence of SYBR green reagents (Bio-Rad®) by using a thermocycler (iCycler, Biorad®). Data were analyzed with the iCycler IQ™® software and compared by the ΔΔCt method. Briefly, the mean Ct value of the target gene was normalized to its averaged Ct values of the housekeeping gene (GAPDH) to give a ΔCt value, which was then normalized to a control sample to obtain a ΔΔCt value. The results were obtained from two series of experiments performed in triplicate.
(§2) Neoplastic cells (in this example osteosarcoma cells) were cultured on pharmaceutical associations comprising PET as a bioactive carrier and one of GFR-binding compounds of SEQ ID NO: 12, 19, 30 or 39. After 24 hours, the Paxillin and Vinculin gene expression decreased as shown by RT-PCR (FIG. 9).

[4] = test system: Paxillin; assay: Paxillin gene expression by RT-PCR; type: cell-based, human; details: osteosarcoma cells on PET associations; 24 hours
Procedure: as §1, §2

[5] = test system: 3-phosphoinositide-dependent protein kinase 1 (PDK1); assay: Adhesion checkpoint activation, western blot of PDK1 protein expression (PIP2); type: cell-based, human; details: osteosarcoma cells on PET associations; 24 hours
Procedure: (§3) After 24 hours of culture, cells were permeabilized (10% SDS, 25 mM NaCl, 10 nM pepstatin and 10 nM leupeptin in distilled water and loading buffer), boiled for 10 minutes and resolved by reducing PAGE (Invitrogen). Proteins were transferred onto nitrocellulose, blocked, and labeled with HRP-conjugated antibodies (Invitrogen). Integrin αv, α5, α3, α4, β1, β, β5 and […] were blotted by treating the nitrocellulose with monoclonal anti-integrin (extracellular domain) αv, α5, α3, α4, β1, β3, β5 and β6 antibodies (Santa Cruz Biotechnology). Phosphor-Smad1/5/8 was blotted by treating the nitrocellulose with monoclonal anti-p-Smad1/5/8 (Santa Cruz Biotechnology). For all of the experiments the western blot was performed in triplicate, along with an additional blot for actin and coomassie blue staining to ensure constant protein load among samples.
(§4) Neoplastic cells (in this example osteosarcoma cells) were cultured on pharmaceutical associations comprising PET as a bioactive carrier and one of GFR-binding compounds of SEQ ID NO: 12, 19, 30 or 39. The main signaling pathways include: Ras/MAP kinase, FAK/Src kinase and PIP2 which are decreased after 24 hours as shown by western blot quantifications (FIG. 8). […] Finally, a decrease of 3-phosphoinositide-dependent protein kinase 1 (PDK1) protein expression was also was observed (FIG. 8C).

[6] = test system: ERK; assay: Adhesion checkpoint activation, western blot of ERK phosphorylation (Ras/MAP kinase); type: cell-based, human; details: osteosarcoma cells on PET associations; 24 hours
Procedure: as §3, §4

[7] = test system: Cyclin D (arithmetic mean of Cyclin D1, Cyclin D2 and Cyclin D3); assay: Cyclin D profile by RT-PCR; type: cell-based, human; details: osteosarcoma cells on PET associations; after the first 30 min of cell culture
Procedure: as §1
Neoplastic cells (in this example osteosarcoma cells) were cultured on pharmaceutical associations comprising PET as a bioactive carrier and one of GFR-binding compounds of SEQ ID NO: 12, 19, 30 or 39. The Cyclin D (the arithmetic mean of Cyclin D1, Cyclin D2 and Cyclin D3) gene expression decreased after the first 30 min of cell culture as shown by RT-PCR (FIG. 10).

[8] = test system: Src kinase; assay: Adhesion checkpoint activation, western blot of Src kinase phosphorylation (FAK/Src kinase); type: cell-based, human; details: osteosarcoma cells on PET associations; 24 hours
Procedure: as §3, §4

Substance | Morphology of neoplastic cells by immunofluorescence visualization [1] | release of GFR-binding compound from non-covalent association [2] | Vinculin gene expression [3] | Paxillin gene expression [4] | PDK1 protein expression [5] | phosphorylation at Thr202 and Tyr204 on ERK [6] | Cyclin D gene expression [7] | phosphorylation of Src kinase [8]
SEQ ID NO: 2: a GFR-binding compound as defined in the present disclosure, grafted on a polymer scaffold in a mixture with a RGD peptide (KVGKASSVPTKLSAISTLYLDDMGVPTLKNYQNMVVRASGSH; also: grafted on polymer scaffold in mixture with RGD peptide) | Spheroid-like structures of neoplastic cells become predominant | – | – | – | – | – | – | –
SEQ ID NO: 9: GFR-binding compound non-covalently associated with apatite ceramics; sequence only in the sequence listing (RNVQCRPTQVQLSAISTLYLEIVRKKPLKNYQTLEDH; non-covalently associated with apatite ceramics; Non-cyclic GFR-binding peptide) | – | no significant release | – | – | – | – | – | –
SEQ ID NO: 10: GFR-binding compound non-covalently associated with type-I collagen sponge; sequence only in the sequence listing (PSSAPTQLSATSVLYYDDSSNVILRKHR; not fully specified) | – | no significant release | – | – | – | – | – | –
SEQ ID NO: 12: GFR-binding compound covalently associated with PET as bioactive carrier; sequence only in the sequence listing (KVGKASSVPTKLSAISMLYLDDMGVPTLKNYQNMVVRAS; also: covalently attached to PET (bioactive carrier), site not given here) | – | – | decreased | decreased | decrease | absence of phosphorylation | decreased | no phosphorylation at Thr416 but phosphorylation of Tyr527
SEQ ID NO: 19: GFR-binding compound covalently associated with PET as bioactive carrier; sequence only in the sequence listing (PSSAPTQLSATSMLYYDDSSNVILRKHRQHNK; also: covalently attached to PET) | – | – | decreased | decreased | decrease | absence of phosphorylation | decreased | no phosphorylation at Thr416 but phosphorylation of Tyr527
SEQ ID NO: 30: GFR-binding compound covalently associated with PET as bioactive carrier; sequence only in the sequence listing (APTKLSAISMLYYDSSNNVIEQLSN; also: covalently attached to PET) | – | – | decreased | decreased | decrease | absence of phosphorylation | decreased | no phosphorylation at Thr416 but phosphorylation of Tyr527
SEQ ID NO: 39: GFR-binding compound covalently associated with PET as bioactive carrier; sequence only in the sequence listing (KASSVPTELSPISTLYKDENEKVVLKYHYDMVV; also: covalently attached to PET) | – | – | decreased | decreased | decrease | absence of phosphorylation | decreased | no phosphorylation at Thr416 but phosphorylation of Tyr527
